Measured values published in ChEMBL document CHEMBL1201862, “PubChem BioAssay data set” (2004).
Active and inactive are the calls of the source.

Key:
[1] = target: Delta-type opioid receptor (Homo sapiens, UniProt P41143); assay: Counterscreen for agonists of heterodimerization of the mu 1 (OPRM1) and delta 1 (OPRD1) opioid receptors: Luminescence-based cell-based high throughput dose response assay to identify agonists of OPRD1 homodimerization. [Related pubchem assays (depositor defined):AID504326, AID504355, AID504692, AID504904, AID504905]; format: functional
Delta-type opioid receptor, sequence (P41143 whole entry): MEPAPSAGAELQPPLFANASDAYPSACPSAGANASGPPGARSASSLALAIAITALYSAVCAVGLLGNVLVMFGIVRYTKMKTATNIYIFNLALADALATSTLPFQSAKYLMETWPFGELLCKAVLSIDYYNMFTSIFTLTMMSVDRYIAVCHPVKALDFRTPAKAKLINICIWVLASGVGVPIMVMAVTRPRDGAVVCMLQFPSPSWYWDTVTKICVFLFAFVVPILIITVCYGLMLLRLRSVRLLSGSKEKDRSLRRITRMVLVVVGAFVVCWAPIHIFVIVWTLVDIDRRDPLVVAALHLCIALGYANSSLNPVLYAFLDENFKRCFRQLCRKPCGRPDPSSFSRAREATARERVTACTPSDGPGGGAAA

[2] = target: 5-hydroxytryptamine receptor 5A (Homo sapiens, UniProt P47898); assay: Counterscreen for agonists of OPRM1-OPRD1 heterodimerization: luminescence-based cell-based high throughput dose response assay to identify agonists of 5-hydroxytryptamine (serotonin) 5A receptor (HTR5A). [Related pubchem assays (depositor defined):AID504326, AID504355, AID504692, AID504904, AID504905]; format: functional
5-hydroxytryptamine receptor 5A, sequence (P47898 whole entry): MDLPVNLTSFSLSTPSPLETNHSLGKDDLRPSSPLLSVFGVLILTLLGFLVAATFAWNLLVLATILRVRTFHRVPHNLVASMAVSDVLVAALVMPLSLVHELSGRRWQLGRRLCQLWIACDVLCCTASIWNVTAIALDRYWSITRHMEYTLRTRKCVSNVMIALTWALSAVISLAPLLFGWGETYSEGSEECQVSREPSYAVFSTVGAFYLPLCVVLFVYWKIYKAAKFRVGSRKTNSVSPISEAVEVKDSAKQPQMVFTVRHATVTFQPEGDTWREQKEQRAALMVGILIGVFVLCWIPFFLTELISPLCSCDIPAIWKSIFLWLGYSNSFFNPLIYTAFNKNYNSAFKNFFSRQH

[3] = target: Mu-type opioid receptor (Homo sapiens, UniProt P35372); assay: Counterscreen for agonists of heterodimerization of the mu 1 (OPRM1) and delta 1 (OPRD1) opioid receptors: Luminescence-based cell-based high throughput dose response assay to identify agonists of OPRM1 homodimerization.; format: functional;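 also: U2OS cells expressing OPRM1 and beta-arrestin as split beta-galactosidase partners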
Mu-type opioid receptor, sequence (P35372 whole entry): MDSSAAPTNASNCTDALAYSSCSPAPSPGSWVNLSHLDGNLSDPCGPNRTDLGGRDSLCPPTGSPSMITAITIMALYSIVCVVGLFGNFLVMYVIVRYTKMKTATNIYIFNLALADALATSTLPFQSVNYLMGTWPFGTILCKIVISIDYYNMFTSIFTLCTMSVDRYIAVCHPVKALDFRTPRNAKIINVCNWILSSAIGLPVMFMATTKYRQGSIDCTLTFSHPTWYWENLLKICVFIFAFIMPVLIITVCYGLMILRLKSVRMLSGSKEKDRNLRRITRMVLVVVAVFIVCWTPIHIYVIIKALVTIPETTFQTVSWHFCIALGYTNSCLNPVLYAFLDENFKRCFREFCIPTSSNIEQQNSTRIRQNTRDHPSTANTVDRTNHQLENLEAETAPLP

[4] = target: T1, Bcl-2-related protein A1 (Mus musculus, UniProt Q07440); format: functional;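 also: confirmatory dose–response counterscreen on Bfl-1, used to check hits from a UBC13 polyubiquitin inhibitor campaign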
T1 sequence (Q07440 whole entry): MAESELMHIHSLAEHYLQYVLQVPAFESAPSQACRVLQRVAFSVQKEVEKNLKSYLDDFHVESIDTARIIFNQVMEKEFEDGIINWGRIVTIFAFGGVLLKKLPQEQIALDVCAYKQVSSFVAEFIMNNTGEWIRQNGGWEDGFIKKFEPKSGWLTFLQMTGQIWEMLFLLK

[5] = target: T2, Apoptotic protease-activating factor 1 (Homo sapiens, UniProt O14727); format: functional
T2 sequence (O14727 whole entry): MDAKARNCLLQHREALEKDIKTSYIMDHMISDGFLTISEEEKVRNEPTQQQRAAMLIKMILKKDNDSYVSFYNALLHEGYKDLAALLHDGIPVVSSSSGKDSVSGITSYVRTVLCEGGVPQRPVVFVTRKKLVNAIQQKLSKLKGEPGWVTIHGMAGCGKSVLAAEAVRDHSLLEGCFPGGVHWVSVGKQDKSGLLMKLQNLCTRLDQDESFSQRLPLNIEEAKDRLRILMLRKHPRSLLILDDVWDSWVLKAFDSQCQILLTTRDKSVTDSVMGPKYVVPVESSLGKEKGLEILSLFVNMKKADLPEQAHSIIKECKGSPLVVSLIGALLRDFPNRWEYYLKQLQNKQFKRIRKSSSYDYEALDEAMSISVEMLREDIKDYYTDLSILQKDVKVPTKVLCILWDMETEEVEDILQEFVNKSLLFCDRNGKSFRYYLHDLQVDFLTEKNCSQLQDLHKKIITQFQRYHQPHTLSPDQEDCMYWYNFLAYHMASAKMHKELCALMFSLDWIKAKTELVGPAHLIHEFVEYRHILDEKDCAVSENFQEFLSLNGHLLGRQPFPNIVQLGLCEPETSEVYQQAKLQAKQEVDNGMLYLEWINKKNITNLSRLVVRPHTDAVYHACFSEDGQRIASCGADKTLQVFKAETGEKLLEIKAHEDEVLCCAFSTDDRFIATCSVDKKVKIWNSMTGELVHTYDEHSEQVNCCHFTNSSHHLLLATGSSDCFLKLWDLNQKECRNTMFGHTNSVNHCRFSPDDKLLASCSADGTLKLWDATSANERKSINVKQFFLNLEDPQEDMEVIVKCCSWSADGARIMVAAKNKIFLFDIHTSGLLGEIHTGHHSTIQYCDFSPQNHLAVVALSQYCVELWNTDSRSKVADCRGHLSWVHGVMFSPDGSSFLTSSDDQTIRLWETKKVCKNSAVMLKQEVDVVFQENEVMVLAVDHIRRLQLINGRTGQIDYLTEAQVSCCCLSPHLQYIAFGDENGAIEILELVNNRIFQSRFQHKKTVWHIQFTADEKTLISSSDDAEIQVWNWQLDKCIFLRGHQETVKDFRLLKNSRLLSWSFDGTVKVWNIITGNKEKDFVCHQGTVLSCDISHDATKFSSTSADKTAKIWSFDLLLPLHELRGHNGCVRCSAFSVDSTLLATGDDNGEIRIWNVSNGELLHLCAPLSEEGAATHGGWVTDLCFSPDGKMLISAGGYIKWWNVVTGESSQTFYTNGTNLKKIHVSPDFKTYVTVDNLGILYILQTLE

[6] = target: T3, DNA repair protein RAD52 homolog (Homo sapiens, UniProt P43351); format: functional, biochemical
T3 sequence (P43351 whole entry): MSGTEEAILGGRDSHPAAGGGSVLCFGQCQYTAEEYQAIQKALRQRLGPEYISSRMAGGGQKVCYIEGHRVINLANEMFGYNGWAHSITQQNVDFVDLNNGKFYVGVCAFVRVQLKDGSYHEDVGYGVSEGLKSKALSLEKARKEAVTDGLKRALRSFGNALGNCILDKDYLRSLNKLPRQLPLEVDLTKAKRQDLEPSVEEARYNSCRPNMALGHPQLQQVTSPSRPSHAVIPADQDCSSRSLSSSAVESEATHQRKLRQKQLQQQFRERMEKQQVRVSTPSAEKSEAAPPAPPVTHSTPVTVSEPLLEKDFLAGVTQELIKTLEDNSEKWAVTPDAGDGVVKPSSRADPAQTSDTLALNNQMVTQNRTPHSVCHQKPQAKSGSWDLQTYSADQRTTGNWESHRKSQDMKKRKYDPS

[7] = fluconazole-exposed Candida albicans growth modulators – fluorescence, retest, confirmation (AID 2467); format: functional, cell-based
[8] = target: T4, Ubiquitin-conjugating enzyme E2 N (Homo sapiens, UniProt P61088); format: functional
T4 sequence (P61088 whole entry): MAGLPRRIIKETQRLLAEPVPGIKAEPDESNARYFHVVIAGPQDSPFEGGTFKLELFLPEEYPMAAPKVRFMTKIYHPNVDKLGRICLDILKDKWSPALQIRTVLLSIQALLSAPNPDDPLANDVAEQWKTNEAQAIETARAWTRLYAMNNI

[9] = target: Glucose-6-phosphate 1-dehydrogenase (Homo sapiens, UniProt P11413); assay: inhibition of Homo sapiens G6PD, dose series – biochemical, fluorescence, selectivity assay for P. falciparum G6PD inhibitor project, dose response (AID 504792); format: functional
Glucose-6-phosphate 1-dehydrogenase, sequence (P11413 whole entry): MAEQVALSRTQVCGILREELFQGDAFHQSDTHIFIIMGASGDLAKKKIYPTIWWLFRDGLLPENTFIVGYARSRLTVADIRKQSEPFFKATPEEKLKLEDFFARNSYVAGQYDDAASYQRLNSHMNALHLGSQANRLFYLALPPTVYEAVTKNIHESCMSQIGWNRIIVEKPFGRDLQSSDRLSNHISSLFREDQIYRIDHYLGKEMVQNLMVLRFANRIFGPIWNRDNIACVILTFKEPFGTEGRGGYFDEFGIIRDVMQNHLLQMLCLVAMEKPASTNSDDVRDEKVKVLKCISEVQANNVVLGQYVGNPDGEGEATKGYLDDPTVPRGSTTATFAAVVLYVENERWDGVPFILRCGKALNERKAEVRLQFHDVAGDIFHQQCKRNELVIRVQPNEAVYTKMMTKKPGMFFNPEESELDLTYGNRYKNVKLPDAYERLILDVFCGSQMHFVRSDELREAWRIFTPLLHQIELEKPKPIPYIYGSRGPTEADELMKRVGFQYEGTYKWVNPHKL

[10] = target: T4, Ubiquitin-conjugating enzyme E2 N; format: functional; remark: listed apart in the source
[11] = target: T5, Protein skinhead-1 (Caenorhabditis elegans, UniProt P34707); format: functional
T5 sequence (P34707 whole entry): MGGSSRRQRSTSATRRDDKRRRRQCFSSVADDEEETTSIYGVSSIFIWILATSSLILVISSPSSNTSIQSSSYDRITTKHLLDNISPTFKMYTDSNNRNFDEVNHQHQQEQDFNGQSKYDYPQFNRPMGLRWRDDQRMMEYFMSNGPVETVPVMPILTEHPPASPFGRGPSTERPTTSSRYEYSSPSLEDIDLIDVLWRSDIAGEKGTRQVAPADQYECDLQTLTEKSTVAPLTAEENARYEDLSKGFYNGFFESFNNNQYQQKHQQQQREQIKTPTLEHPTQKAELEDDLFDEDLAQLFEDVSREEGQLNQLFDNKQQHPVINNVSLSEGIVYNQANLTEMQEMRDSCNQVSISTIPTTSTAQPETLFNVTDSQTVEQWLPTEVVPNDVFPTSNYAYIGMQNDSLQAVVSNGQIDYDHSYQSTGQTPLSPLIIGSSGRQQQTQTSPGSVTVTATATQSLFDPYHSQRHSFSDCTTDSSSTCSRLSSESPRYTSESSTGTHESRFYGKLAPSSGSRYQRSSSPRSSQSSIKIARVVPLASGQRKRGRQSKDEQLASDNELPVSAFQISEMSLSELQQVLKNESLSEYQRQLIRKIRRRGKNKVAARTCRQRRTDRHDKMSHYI

[12] = NIH-3T3 fibroblast cytotoxicity, dose response, cytotoxicity control, cell-based, fluorescence, Alamar Blue, secondary assay (AID 2327); format: functional;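 also: NIH-3T3 mouse fibroblasts cultured with fluconazole at 8 µg/mL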
[13] = target: T6, Replicative DNA helicase DnaB (Mycobacterium tuberculosis, UniProt P9WMR3); assay: DnaB intein splicing inhibitors, dose response, biochemical, cell-free fluorescence (AID 449749); format: functional
T6 sequence (P9WMR3 whole entry): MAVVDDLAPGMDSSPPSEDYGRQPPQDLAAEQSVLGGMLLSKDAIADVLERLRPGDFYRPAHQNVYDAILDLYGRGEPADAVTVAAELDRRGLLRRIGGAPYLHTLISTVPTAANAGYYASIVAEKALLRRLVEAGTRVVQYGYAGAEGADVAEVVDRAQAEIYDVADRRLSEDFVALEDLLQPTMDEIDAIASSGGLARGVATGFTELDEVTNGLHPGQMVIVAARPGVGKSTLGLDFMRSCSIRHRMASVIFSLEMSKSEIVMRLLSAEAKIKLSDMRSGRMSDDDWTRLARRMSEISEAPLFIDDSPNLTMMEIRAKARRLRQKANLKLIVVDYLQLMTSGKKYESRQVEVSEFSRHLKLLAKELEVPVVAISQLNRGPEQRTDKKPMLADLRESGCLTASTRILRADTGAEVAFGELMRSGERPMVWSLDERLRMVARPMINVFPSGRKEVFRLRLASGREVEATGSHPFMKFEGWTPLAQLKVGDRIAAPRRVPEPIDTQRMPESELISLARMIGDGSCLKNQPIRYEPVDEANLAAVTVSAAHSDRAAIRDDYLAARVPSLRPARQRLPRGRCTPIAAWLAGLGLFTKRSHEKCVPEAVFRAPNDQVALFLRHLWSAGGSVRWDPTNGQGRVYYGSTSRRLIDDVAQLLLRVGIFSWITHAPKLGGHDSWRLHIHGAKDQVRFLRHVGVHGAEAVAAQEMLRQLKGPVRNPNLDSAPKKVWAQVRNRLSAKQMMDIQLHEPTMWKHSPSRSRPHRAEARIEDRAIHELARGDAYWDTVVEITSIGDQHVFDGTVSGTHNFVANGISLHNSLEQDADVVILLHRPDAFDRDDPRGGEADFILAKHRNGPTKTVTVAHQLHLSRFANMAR

[14] = target: T7, Protein RecA (Mycobacterium tuberculosis, UniProt P9WHJ3); assay: Fluorescence Cell-Free Homogeneous Dose Retest to Identify Inhibitors of RecA-Intein Splicing Activity. [Related pubchem assays (depositor defined):AID2097, AID2223, AID489010, AID492950]; format: functional
T7 sequence (P9WHJ3 whole entry): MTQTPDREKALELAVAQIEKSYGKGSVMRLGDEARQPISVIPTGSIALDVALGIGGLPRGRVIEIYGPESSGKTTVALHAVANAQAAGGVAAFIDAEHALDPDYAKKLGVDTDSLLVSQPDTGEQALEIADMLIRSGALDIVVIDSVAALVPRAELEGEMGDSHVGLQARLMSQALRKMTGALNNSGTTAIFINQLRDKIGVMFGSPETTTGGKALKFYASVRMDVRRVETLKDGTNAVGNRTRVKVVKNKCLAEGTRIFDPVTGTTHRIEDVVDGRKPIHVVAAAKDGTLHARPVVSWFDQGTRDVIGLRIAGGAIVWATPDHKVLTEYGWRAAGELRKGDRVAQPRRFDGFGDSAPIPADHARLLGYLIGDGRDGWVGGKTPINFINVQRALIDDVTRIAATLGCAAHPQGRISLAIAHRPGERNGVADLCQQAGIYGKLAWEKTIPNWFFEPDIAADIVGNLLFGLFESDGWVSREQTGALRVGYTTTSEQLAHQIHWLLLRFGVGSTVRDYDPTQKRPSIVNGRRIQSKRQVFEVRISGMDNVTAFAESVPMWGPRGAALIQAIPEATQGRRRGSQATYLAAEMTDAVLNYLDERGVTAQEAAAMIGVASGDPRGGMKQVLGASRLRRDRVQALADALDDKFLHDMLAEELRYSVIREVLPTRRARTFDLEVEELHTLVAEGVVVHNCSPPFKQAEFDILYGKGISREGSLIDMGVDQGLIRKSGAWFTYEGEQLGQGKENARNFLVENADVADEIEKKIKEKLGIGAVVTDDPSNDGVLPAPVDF

[15] = tested on: Escherichia coli; assay: microbe, parasite or virus in culture

SMILES: COc1ccccc1CN1CCN(C(CC(C)C)c2nnnn2Cc2cccs2)CC1 (centres undefined)
- EC50 [1]: > 92.5 µM (inactive)
- EC50 [2]: > 92.5 µM (inactive)
- EC50 [3]: > 92.5 µM (inactive)

SMILES: Cc1ccc2nc(-c3ccc(NC(S)=NC4CC(C)(C)NC(C)(C)C4)cc3)sc2c1
- IC50 [4]: > 20 µM (inactive)
- IC50 [5]: 43.6 µM (active)
- AC50 [6]: 4.95 µM (active)
- EC50 [7]: > 38 µM (not active)
- IC50 [8]: 16.8 µM (active)
- IC50 [9]: > 80 µM (inactive)
- IC50 [10]: > 20 µM (inactive)
- IC50 [11]: 35.1 µM (active)
- EC50 [12]: > 150 µM (inactive)

SMILES: Cc1ccc(S(=O)(=O)N(C(=O)c2ccncc2)c2ccc(OC(=O)c3ccncc3)c3ccccc23)cc1
- IC50 [9]: > 80 µM (inactive)
- AC50 [13]: 1.51 µM (active)
- EC50 [14]: 0.315 µM (active)

SMILES: CN(C)C(CNC(=O)c1ccc2ccccc2c1)c1ccco1 (centres undefined)
- EC50 [1]: > 92.5 µM (inactive)
- EC50 [2]: > 92.5 µM (inactive)
- EC50 [3]: > 92.5 µM (inactive)

SMILES: CCN(CC)S(=O)(=O)c1ccc(=O)n(CC(=O)N2Cc3ccccc3CC2C(N)=O)c1 (centres undefined)
- AC50 [15]: 116 µM (active)
